According to the supplement of paper PMC10307832:

Columns and labels:
Test in all cases: relative viability (nuclei count vs DMSO), 5 days (fraction); higher = more cells survive
[1] = compound: COc1cc2nc(N3CCCN(C)CC3)nc(NC3CCN(Cc4ccccc4)CC3)c2cc1OC
Summary of the method: (§1)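 Acceptance criteria were a control CV below 25% and at least one doubling per plate. Lung cancer cell lines in 1536-well plates got five library-drug doses (not always all listed) √10 apart by pinning and were left 5 days with no medium change. Viability divides treated-well nuclei by vehicle-well nuclei and is the median across plates. Nuclei were counted by MetaXpress from 4× Hoechst images.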

AZD6482 = compound: Cc1cc([C@@H](C)Nc2ccccc2C(=O)O)c2nc(N3CCOCC3)cc(=O)n2c1 [AZD6482]
Summary of the method: as §1

[2] = compound: COc1cc2nc(N3CCCN(C)CC3)nc(NC3CCN(Cc4ccccc4)CC3)c2cc1OC + CCNC(=O)c1noc(-c2cc(C(C)C)c(O)cc2O)c1-c1ccc(CN2CCOCC2)cc1 [Luminespib] (partner 0.01 µM)
Summary of the method: (§2)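 Nuclei were stained with Hoechst during a one-step fixation (final 0.05% Triton X-100, 1% formaldehyde, 1 ug/ml Hoechst) carried out 5 days after dosing, then counted on 4× images. The cells, lung cancer lines in 1536-well plates, had been dosed by pin tool the day after seeding with one drug alone or a fixed anchor-drug dose plus five library-drug doses (not always all listed) in √10 steps. Relative viability is the nuclei count in treated wells divided by that in vehicle wells, and each value is the median of duplicate plates.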

[3] = compound: COc1cc2nc(N3CCCN(C)CC3)nc(NC3CCN(Cc4ccccc4)CC3)c2cc1OC + COc1cc2c(Oc3ccc(NC(=O)C4(C(=O)Nc5ccc(F)cc5)CC4)cc3F)ccnc2cc1OCCCN1CCOCC1 [Foretinib] (partner 0.25 µM)
Summary of the method: as §2

[4] = compound: COc1cc2nc(N3CCCN(C)CC3)nc(NC3CCN(Cc4ccccc4)CC3)c2cc1OC + COc1cccc2cc(-c3nc([C@H]4CC[C@H](C(=O)O)CC4)n4ncnc(N)c34)[nH]c12 [OSI-027] (partner 0.5 µM)
Summary of the method: as §2

[5] = compound: COc1cc2nc(N3CCCN(C)CC3)nc(NC3CCN(Cc4ccccc4)CC3)c2cc1OC + Cc1cc(Nc2cc(N3CCN(C)CC3)nc(Sc3ccc(NC(=O)C4CC4)cc3)n2)n[nH]1 [Tozasertib] (partner 0.1 µM)
Summary of the method: as §2

[6] = compound: COc1cc2nc(N3CCCN(C)CC3)nc(NC3CCN(Cc4ccccc4)CC3)c2cc1OC + Cc1nc(Nc2ncc(C(=O)Nc3c(C)cccc3Cl)s2)cc(N2CCN(CCO)CC2)n1 [Dasatinib] (partner 0.075 µM)
Summary of the method: as §2

[7] = compound: COc1cc2nc(N3CCCN(C)CC3)nc(NC3CCN(Cc4ccccc4)CC3)c2cc1OC + N=C(N)NC(=N)NCCc1ccccc1 [Phenformin] (partner 250 µM)
Summary of the method: as §2

AZD6482 + Luminespib = compound: Cc1cc([C@@H](C)Nc2ccccc2C(=O)O)c2nc(N3CCOCC3)cc(=O)n2c1 [AZD6482] + CCNC(=O)c1noc(-c2cc(C(C)C)c(O)cc2O)c1-c1ccc(CN2CCOCC2)cc1 [Luminespib] (partner 0.01 µM)
Summary of the method: as §2

AZD6482 + Foretinib = compound: Cc1cc([C@@H](C)Nc2ccccc2C(=O)O)c2nc(N3CCOCC3)cc(=O)n2c1 [AZD6482] + COc1cc2c(Oc3ccc(NC(=O)C4(C(=O)Nc5ccc(F)cc5)CC4)cc3F)ccnc2cc1OCCCN1CCOCC1 [Foretinib] (partner 0.25 µM)
Summary of the method: as §2

AZD6482 + OSI-027 = compound: Cc1cc([C@@H](C)Nc2ccccc2C(=O)O)c2nc(N3CCOCC3)cc(=O)n2c1 [AZD6482] + COc1cccc2cc(-c3nc([C@H]4CC[C@H](C(=O)O)CC4)n4ncnc(N)c34)[nH]c12 [OSI-027] (partner 0.5 µM)
Summary of the method: as §2

AZD6482 + Tozasertib = compound: Cc1cc([C@@H](C)Nc2ccccc2C(=O)O)c2nc(N3CCOCC3)cc(=O)n2c1 [AZD6482] + Cc1cc(Nc2cc(N3CCN(C)CC3)nc(Sc3ccc(NC(=O)C4CC4)cc3)n2)n[nH]1 [Tozasertib] (partner 0.1 µM)
Summary of the method: as §2

AZD6482 + Dasatinib = compound: Cc1cc([C@@H](C)Nc2ccccc2C(=O)O)c2nc(N3CCOCC3)cc(=O)n2c1 [AZD6482] + Cc1nc(Nc2ncc(C(=O)Nc3c(C)cccc3Cl)s2)cc(N2CCN(CCO)CC2)n1 [Dasatinib] (partner 0.075 µM)
Summary of the method: as §2

AZD6482 + Phenformin = compound: Cc1cc([C@@H](C)Nc2ccccc2C(=O)O)c2nc(N3CCOCC3)cc(=O)n2c1 [AZD6482] + N=C(N)NC(=N)NCCc1ccccc1 [Phenformin] (partner 250 µM)
Summary of the method: as §2

NCI-H1623
relative viability ([1]; 0.2 µM): 0.933 | relative viability ([1]; 0.6325 µM): 0.965 | relative viability ([1]; 2 µM): 0.979 | relative viability ([1]; 6.325 µM): 0.966 | relative viability (AZD6482; 0.08 µM): 0.899 | relative viability (AZD6482; 0.253 µM): 0.947 | relative viability (AZD6482; 0.8 µM): 0.955 | relative viability (AZD6482; 2.53 µM): 0.76 | relative viability (AZD6482; 8 µM): 0.632 | relative viability ([2]; first compound 0.2 µM): 0.493 | relative viability ([2]; first compound 0.6325 µM): 0.586 | relative viability ([2]; first compound 2 µM): 0.502 | relative viability ([2]; first compound 6.325 µM): 0.513 | relative viability ([3]; first compound 0.2 µM): 0.903 | relative viability ([3]; first compound 0.6325 µM): 0.94 | relative viability ([3]; first compound 2 µM): 0.848 | relative viability ([3]; first compound 6.325 µM): 0.768 | relative viability ([4]; first compound 0.2 µM): 0.443 | relative viability ([4]; first compound 0.6325 µM): 0.472 | relative viability ([4]; first compound 2 µM): 0.444 | relative viability ([4]; first compound 6.325 µM): 0.444 | relative viability ([5]; first compound 0.2 µM): 0.432 | relative viability ([5]; first compound 0.6325 µM): 0.45 | relative viability ([5]; first compound 2 µM): 0.442 | relative viability ([5]; first compound 6.325 µM): 0.411 | relative viability ([6]; first compound 0.2 µM): 0.517 | relative viability ([6]; first compound 0.6325 µM): 0.604 | relative viability ([6]; first compound 2 µM): 0.507 | relative viability ([6]; first compound 6.325 µM): 0.524 | relative viability ([7]; first compound 0.2 µM): 0.62 | relative viability ([7]; first compound 0.6325 µM): 0.621 | relative viability ([7]; first compound 2 µM): 0.522 | relative viability ([7]; first compound 6.325 µM): 0.569 | relative viability (AZD6482 + Luminespib; first compound 0.08 µM): 0.48 | relative viability (AZD6482 + Luminespib; first compound 0.253 µM): 0.402 | relative viability (AZD6482 + Luminespib; first compound 0.8 µM): 0.472 | relative viability (AZD6482 + Luminespib; first compound 2.53 µM): 0.45 | relative viability (AZD6482 + Luminespib; first compound 8 µM): 0.413 | relative viability (AZD6482 + Foretinib; first compound 0.08 µM): 0.778 | relative viability (AZD6482 + Foretinib; first compound 0.253 µM): 0.888 | relative viability (AZD6482 + Foretinib; first compound 0.8 µM): 0.923 | relative viability (AZD6482 + Foretinib; first compound 2.53 µM): 0.703 | relative viability (AZD6482 + Foretinib; first compound 8 µM): 0.682 | relative viability (AZD6482 + OSI-027; first compound 0.08 µM): 0.392 | relative viability (AZD6482 + OSI-027; first compound 0.253 µM): 0.404 | relative viability (AZD6482 + OSI-027; first compound 0.8 µM): 0.432 | relative viability (AZD6482 + OSI-027; first compound 2.53 µM): 0.388 | relative viability (AZD6482 + OSI-027; first compound 8 µM): 0.397 | relative viability (AZD6482 + Tozasertib; first compound 0.08 µM): 0.384 | relative viability (AZD6482 + Tozasertib; first compound 0.253 µM): 0.382 | relative viability (AZD6482 + Tozasertib; first compound 0.8 µM): 0.397 | relative viability (AZD6482 + Tozasertib; first compound 2.53 µM): 0.419 | relative viability (AZD6482 + Tozasertib; first compound 8 µM): 0.371 | relative viability (AZD6482 + Dasatinib; first compound 0.08 µM): 0.521 | relative viability (AZD6482 + Dasatinib; first compound 0.253 µM): 0.524 | relative viability (AZD6482 + Dasatinib; first compound 0.8 µM): 0.457 | relative viability (AZD6482 + Dasatinib; first compound 2.53 µM): 0.426 | relative viability (AZD6482 + Dasatinib; first compound 8 µM): 0.395 | relative viability (AZD6482 + Phenformin; first compound 0.08 µM): 0.577 | relative viability (AZD6482 + Phenformin; first compound 0.253 µM): 0.579 | relative viability (AZD6482 + Phenformin; first compound 0.8 µM): 0.531 | relative viability (AZD6482 + Phenformin; first compound 2.53 µM): 0.502 | relative viability (AZD6482 + Phenformin; first compound 8 µM): 0.534
